The record followed here is patent US20240335395A1, “COMPOSITIONS AND METHODS FOR PREVENTING AND/OR TREATING DISEASE ASSOCIATED WITH IL-23 EXPRESSION” (ALLSPIM, priority 2021, published 2024).

Test [1] relates to IL-23 gene (IL-23p19). The test is described as follows: IL-23 gene expression (RT-qPCR) in LPS-stimulated THP-1 cell culture. Format: cell-based, human. To be noted: THP-1, LPS 10 ng/ml, 2 h. On the procedure:
The THP-1 cell line (TIB-202) was obtained from the American Type Culture Collection (ATCC, USA), grown in RPMI 1640 culture medium (Gibco) supplemented with 10% fetal bovine serum (Gibco, UK), 50 U/mL penicillin-streptomycin (Gibco), and 0.05 mM 2-Mercaptoethanol (Gibco). Cultured cells were plated into culture plates in appropriate volumes with a cell density of 500,000 cells/mL.
At two hours after stimulation with LPS (10 ng/ml) in the presence or not of 2,4-D at increasing concentrations, THP-1 cells from each experimental condition were directly lysed using TRIzol reagent (Invitrogen, USA) followed by RNA extraction according to the manufacturer's instructions. Finally, RNA was dissolved in 10 μL diethyl pyrocarbonate (DEPC)-treated water, quantified on a NanoDrop 2000 spectrophotometer (Thermo Scientific Inc., USA), and reverse-transcribed using the Super Script III First-Strand Synthesis System for RT-PCR kit (Thermo Scientific, USA) according to the manufacturer's instructions.
PCR was performed in duplicate using SYBR Green qPCR master mix (Takara Biomedical Technology Co., Ltd, Dalian, China) on an ABI 7500 Real-Time PCR System (Thermo, USA). […] The ΔΔCT method was used to quantify relative mRNA levels as described in User Bulletin #2 for the ABI PRISM 7700 Sequence Detection System (Applied Biosystems, 2001). […]

In test [2] the test system is IBA1 positive macrophage/microglia. The test is described as follows: Laser-induced CNV in rats, IBA-1 positive macrophages on RPE-choroid flat-mounts. To be noted: intravitreous injection. Format: in vivo, rat. On the procedure:
Animals. All experiments were performed in accordance with the European Communities Council Directive 86/609/EEC and approved by local ethical committees (#2541-2015110210279792 v3). Six- to eight-week-old male Long Evans rats from the Janvier Breeding Center (Le Genest-Saint-Isle, France) were used to create a rat model of choroidal neovascularization (CNV) used as a model of human wet macular degeneration. Laser-induced CNV. After anesthesia and dilation of the pupils, coverslips were positioned on the cornea as a contact glass. For rats, six or eight burns were performed 2 to 3 optic disc diameters away from the optic nerve with an Argon laser (532 nm) mounted on a slit lamp (175 mW, 0.1 s and 50 μm). Both eyes of animals received laser induction. The presence of a bubble witnessed the rupture of Bruch's membrane and confirmed a successful laser impact. Treatments. After laser photocoagulation, rats were divided into 3 treatment groups: —Intravitreous injection (IVT) of 2,4-D (identified as “new treatment”, New T), —IVT of vehicle (PBS), —IVT of triamcinolone acetonide (Kenacort® 40 mg/ml; TA) (n=12 rats per group). The IVT consisted of 5 μl injected with a 31G needle mounted on a micro-thin (100 μl) syringe posterior to the limbus, avoiding the lens. IVT was performed immediately after laser had been performed. […]

In test [3] the test system is immune cells from the peritoneal cavity. Kind of test: Endometriosis mouse model, immune cell proportions of the peritoneal cavity (flow cytometry). It counts as in vivo. Conditions: 50 mg/kg/day, 5 times a week, 6 weeks. On the procedure: Experimental design. Balb/C female mice (10 weeks old) were habituated for 3 days to take a jelly containing (group EDT+2,4D) or not (groups No EDT and EDT+Vehicle) the compound. Surgical implantation of endometrial tissue from syngenic female in peritoneum, was performed at day 0 for groups EDT+Vehicle and EDT+2,4D. […] The vehicle or treatment was then given 5 times a week (50 mg/kg/day) during 6 weeks. Mice were then sacrificed and the peritoneal inflammation was assessed. All the details of the protocol are depicted in FIG. 27. Cytokine measurement in cell-free peritoneal lavage. After mice were euthanized, 5 mL of PBS was injected into the peritoneal cavity and the diluted peritoneal fluid containing the cells was then retrieved. The cells were pelleted by centrifugation at 500×g 4° C. and the supernatant (cell-free peritoneal fluid) was frozen at −80° C. for subsequent cytokine concentration measurement by ELISA. Cytokine concentration was assessed by ELISA kit in the peritoneal fluid (ThermoFisher, Mouse IL-1β, IL6 and TNFalpha Uncoated ELISA). […] The optical density was read with the Clariostar Plus Microplate Reader (BMG LABTECH), through the Clario software. Concentrations were calculated from a standard curve according to the manufacturer's protocol. Phenotypic study of immune cells from the peritoneal cavity assessed by flow cytometry. The pelleted peritoneal cells were resuspended in PBS-2% FBS and counted. One million cells were stained with the following fluorophore-conjugated antibodies purchased from BioLegend: CD45 BV510, CD11b APC-Cy7, CD11c PE, F4/80 BV711, CD80 PE Cy5, CD206 AF647, Ly-6C, PE-Cy7, CCR2 BV786 et CXCR4 BV421, CD45R/B220 PE Texas-Red, CD3E FITC, NK1.1 BV605 and CD69 PerCP-Cy5.5, Zombie-UV. Cells were incubated 20 min in the dark at 4° C., washed with PBS-2% FBS, and were fixed with paraformaldehyde 4% in 5 mL round-bottom polystyrene tubes (Falcon™ 352054). Compensation was adjusted with Ultracomp beads (ThermoFisher). […] All data were collected on LSR Fortessa flow cytometer (BD Bioscience, USA) and analyzed with FlowJo software. […]

Regarding `COc1cc(O)c(OC)c(O)c1C(=O)/C=C/c1ccccc1` [2,4-D, 2′,4′-dihydroxy-3′,6′-dimethoxychalcone], the IL-23 gene expression entry in test [1] is listed as “strongly inhibited”. The “number of infiltrating IBA-1 positive macrophages in CNV” value in test [2] is listed as “important reduction”. For the same molecule, in test [3], the “global T cell proportion” value is given as “did not affect”, the “proportion of NK cells amongst the peritoneal cells” value was “significantly reduced” and the proportion of macrophages result is reported as “not changed”.
